Test results taken from patent US5389614A (Cassella AG, priority 1991, dated 1995).
Like-named read-outs stand apart in the source and are kept apart here.

What was measured:
[1] = biological target: T1, fibrinogen receptor (glycoprotein IIb/IIIa) (Homo sapiens, UniProt P05106+P08514); test: Inhibition of bonding of 125I-fibrinogen to its receptor on intact, gel-filtered human platelets; assay type: binding; settings: inhibition of 125I-fibrinogen bonding after stimulation with ADP (10 μM), read-out: K1 (μm), ADP stimulated
T1 construct: its receptor (glycoprotein IIb/IIIa) on intact, gel-filtered human platelets; endogenous in cells; host or cells: gel-filtered human platelets from donor blood, stimulated with ADP (10 µM)
T1 sequence (P08514 32-887 limits assumed): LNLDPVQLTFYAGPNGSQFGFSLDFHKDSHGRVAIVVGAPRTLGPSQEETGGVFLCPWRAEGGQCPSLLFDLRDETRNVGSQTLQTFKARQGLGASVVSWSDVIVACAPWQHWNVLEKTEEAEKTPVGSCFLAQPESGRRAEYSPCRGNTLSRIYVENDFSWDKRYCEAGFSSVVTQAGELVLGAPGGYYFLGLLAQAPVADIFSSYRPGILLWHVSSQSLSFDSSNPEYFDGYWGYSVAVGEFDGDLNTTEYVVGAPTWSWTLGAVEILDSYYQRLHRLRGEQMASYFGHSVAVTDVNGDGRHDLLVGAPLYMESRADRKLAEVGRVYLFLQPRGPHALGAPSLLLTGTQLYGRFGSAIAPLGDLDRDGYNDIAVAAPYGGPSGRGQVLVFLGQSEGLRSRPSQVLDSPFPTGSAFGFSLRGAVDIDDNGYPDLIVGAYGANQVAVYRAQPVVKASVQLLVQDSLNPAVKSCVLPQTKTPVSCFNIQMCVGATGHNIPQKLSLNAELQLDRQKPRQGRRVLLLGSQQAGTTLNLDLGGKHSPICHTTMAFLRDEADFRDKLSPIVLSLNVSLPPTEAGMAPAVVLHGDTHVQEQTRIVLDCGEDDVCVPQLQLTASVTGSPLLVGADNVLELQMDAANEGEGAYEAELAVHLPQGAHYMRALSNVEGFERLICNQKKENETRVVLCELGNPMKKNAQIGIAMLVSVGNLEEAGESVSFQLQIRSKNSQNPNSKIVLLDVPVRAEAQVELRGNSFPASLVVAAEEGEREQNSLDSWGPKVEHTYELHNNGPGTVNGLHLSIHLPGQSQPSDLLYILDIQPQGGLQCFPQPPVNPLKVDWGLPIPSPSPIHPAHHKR
T1 sequence (P08514 891-1039 partner limits assumed): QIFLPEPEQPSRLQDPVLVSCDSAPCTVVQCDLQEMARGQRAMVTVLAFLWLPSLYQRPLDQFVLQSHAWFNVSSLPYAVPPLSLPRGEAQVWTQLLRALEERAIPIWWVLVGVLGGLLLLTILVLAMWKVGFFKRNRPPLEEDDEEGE
T1 sequence (P05106 27-788): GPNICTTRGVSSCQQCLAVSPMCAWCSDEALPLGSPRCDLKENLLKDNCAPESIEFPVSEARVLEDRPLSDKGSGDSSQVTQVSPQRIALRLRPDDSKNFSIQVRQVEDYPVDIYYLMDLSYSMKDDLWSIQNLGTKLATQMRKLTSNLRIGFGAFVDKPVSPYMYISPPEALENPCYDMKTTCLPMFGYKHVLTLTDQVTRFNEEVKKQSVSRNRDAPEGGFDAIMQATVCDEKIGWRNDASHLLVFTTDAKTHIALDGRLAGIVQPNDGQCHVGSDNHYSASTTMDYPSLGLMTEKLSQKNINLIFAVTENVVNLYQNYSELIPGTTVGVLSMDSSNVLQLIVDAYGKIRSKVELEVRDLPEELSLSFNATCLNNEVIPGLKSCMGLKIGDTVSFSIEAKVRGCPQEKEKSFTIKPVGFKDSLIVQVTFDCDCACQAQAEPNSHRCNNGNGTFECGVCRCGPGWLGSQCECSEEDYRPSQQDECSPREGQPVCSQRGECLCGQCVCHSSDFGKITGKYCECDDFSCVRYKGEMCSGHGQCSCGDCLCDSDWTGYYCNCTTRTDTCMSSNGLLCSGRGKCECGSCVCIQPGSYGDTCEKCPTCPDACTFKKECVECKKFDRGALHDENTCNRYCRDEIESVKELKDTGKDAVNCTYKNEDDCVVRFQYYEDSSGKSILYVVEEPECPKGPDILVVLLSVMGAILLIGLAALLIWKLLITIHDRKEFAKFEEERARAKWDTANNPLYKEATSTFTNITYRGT
Procedure: (§1) The compounds are tested above all for their inhibiting action on blood platelet aggregation and the adhesion of fibrinogen to blood platelets.
(§2) Gel-filtered blood platelets from human donor blood activated with ADP or thrombin are used.
A) Inhibition of bonding of fibrinogen to its receptor (glycoprotein IIb/IIIa) on intact, gel-filtered human platelets by the compounds according to the invention is tested. The Ki value of the inhibition of the bonding of ^125 I-fibrinogen after stimulation with ADP (10 μM) is stated.
Literature: J. S. Bennett and G. Vilaire, J. Clin. Invest. 64 (1979), 1393-1401

[2] = system: gel-filtered human platelets; test: Inhibition of aggregation of gel-filtered human platelets after ADP or thrombin stimulation; assay type: cell-based; settings: platelet aggregation
Procedure: as §1, §2
B) As a functional test, the inhibition of aggregation of gel-filtered human platelets by the compounds according to the invention after ADP or thrombin stimulation is measured. The IC50 value of the inhibition is stated.

[3] = ADP stimulation, read-out: IC50 (μM), ADP-stimulated
[4] = thrombin stimulation, read-out: IC50 (μM), Thrombin-stimulated
[5] = Homo sapiens, ADP stimulation, read-out: IC50 (μM), ADP-stimulated
[6] = Homo sapiens, thrombin stimulation, read-out: IC50 (μM), Thrombin-stimulated

IC50 [2, 3] | IC50 [2, 4] | SMILES | Ki [1] | IC50 [2, 5] | IC50 [2, 6]
0.4 µM | 0.15 µM | CC(C)[C@H](NC(=O)[C@H](CC(=O)O)NC(=O)CN1C(=O)NC(Cc2ccc(C(=N)N)cc2)C1=O)C(=O)O (stereo partly drawn) [Example 1, [5-(S,R )-(4-Formamidino-benzyl)-2,4-dioxoimidazolidin-3-yl]-acetyl-L-aspartyl-L-valine.] | 31 nM |  | 
 |  | CC(C)[C@H](NC(=O)[C@H](CC(=O)O)NC(=O)CN1C(=O)[C@H](CCCNC(=N)N)N(C)C1=O)C(=O)O [Example 2] | 400 nM | 4.5 µM | 1.5 µM
30 µM | 4 µM | CC(C)[C@H](NC(=O)[C@H](CC(=O)O)NC(=O)CN1C(=O)N[C@@H](CCCCN)C1=O)C(=O)O [Example 3, [5-(S)-(4-Amino-butyl)-2,4-dioxoimidazolidin-3-yl]-acetyl-Asp-Val-OH] |  |  | 
0.2 µM | 0.1 µM | N=C(N)c1ccc(CC2NC(=O)N(CC(=O)N[C@@H](CC(=O)O)C(=O)N[C@H](C(=O)O)c3ccccc3)C2=O)cc1 (stereo partly drawn) [Example 5, [5-(S,R)-(4-Formamidino-benzyl) -2,4-dioxoimidazolidin-3-yl]-acetyl-L-aspartyl-L-phenylglycine] | 22 nM |  | 
 |  | CC(C)[C@H](NC(=O)[C@H](CC(=O)O)NC(=O)CN1C(=O)N[C@@H](Cc2ccc(N)cc2)C1=O)C(=O)O [Example 7] | 2430 nM |  | 
 |  | CC(C)[C@H](NC(=O)[C@H](CC(=O)O)NC(=O)CN1C(=O)N[C@@H](Cc2ccc(NC(=N)N)cc2)C1=O)C(=O)O [Example 8] | 710 nM | 6 µM | 3 µM
 |  | CC(C)[C@H](NC(=O)[C@H](CC(=O)O)NC(=O)c1cccc(N2C(=O)N[C@@H](CCCNC(=N)N)C2=O)c1)C(=O)O [Example 11, 3-(5-(S)-(3-Guanidinopropyl)-2,4-dioxoimidazolidin-3-yl)benzoyl-L-aspartyl-L-valine] | 1870 nM |  | 
0.2 µM | 0.1 µM | CC[C@H](C)[C@H](NC(=O)[C@H](CC(=O)O)NC(=O)CN1C(=O)NC(Cc2ccc(C(=N)N)cc2)C1=O)C(=O)O (stereo partly drawn) [Example 12, (5-(R,S)-(4-Formamidinobenzyl)-2,4-dioxo-imidazolidin-3-yl)-acetyl-L-aspartyl-L-isoleucine] | 42 nM |  | 
0.35 µM | 0.4 µM | N=C(N)c1ccc(CC2NC(=O)N(CC(=O)N[C@@H](CC(=O)O)C(=O)N[C@@H](CCCCN)C(=O)O)C2=O)cc1 (stereo partly drawn) [Example 13, (5-(R, S)-(4-Formamidinobenzyl)-2,4-dioxo-imidazolidin-3-yl) -acetyl-L-aspartyl-L-lysine] | 42 nM |  | 
 |  | NCc1ccc(C=C2NC(=O)N(CC(=O)N[C@@H](CC(=O)O)C(=O)N[C@H](C(=O)O)c3ccccc3)C2=O)cc1 [Example 15] | 280 nM | 0.7 µM | 0.45 µM
4.5 µM | 4 µM | CCCCCCCCCCCCCCCCOC(=O)[C@@H](NC(=O)[C@H](CC(=O)O)NC(=O)CN1C(=O)NC(Cc2ccc(C(=N)N)cc2)C1=O)c1ccccc1 (some centres unmarked) [Example 17] |  |  | 
7 µM | 2.5 µM | NCc1ccc(CC2NC(=O)N(CC(=O)N[C@@H](CC(=O)O)C(=O)N[C@H](C(=O)O)c3ccccc3)C2=O)cc1 (stereo partly drawn) [Example 19, (5-(4-Aminomethylbenzyl)-2,4-dioxo-imidazolidin-3-yl)-acetyl-L-aspartyl-L-phenyglycine] |  |  | 
4.5 µM | 2.5 µM | CN(C(=O)[C@H](CC(=O)O)NC(=O)CN1C(=O)NC(Cc2ccc(C(=N)N)cc2)C1=O)[C@H](C(=O)O)c1ccccc1 (stereo partly drawn) [Example 20, (5-(R,S)-(4-Formamidinobenzyl)-2,4-dioxo-imidazolidin-3-yl)-acetyl-L-aspartyl-(N-methyl)-L-phenylglycine] | 1590 nM |  | 
0.7 µM | 0.3 µM | CC(C)[C@H](NC(=O)[C@H](CC(=O)O)NC(=O)CN1C(=O)NC(Cc2ccc(C(=N)N)cc2)C1=O)C(=O)OCc1ccccc1 (stereo partly drawn) [Example 21, (5-(R,S)-(4-Formamidinobenzyl) -2,4-dioxo-imidazolidin-3-yl) -acetyl-L-aspartyl-L-valine benzyl ester] | 240 nM |  | 
0.8 µM | 0.25 µM | N=C(N)c1ccc(CC2NC(=O)N(CC(=O)N[C@@H](CC(=O)O)C(=O)N[C@@H](Cc3c[nH]c4ccccc34)C(=O)O)C2=O)cc1 (stereo partly drawn) [Example 22, (5-(R,S)-(4-Formamidinobenzyl)-2,4-dioxo-imidazolidin-3-yl)-acetyl-L-aspartyl-L-tryptophan] | 140 nM |  | 
 |  | CC(C)[C@H](NC(=O)[C@H](CC(=O)O)NC(=O)CCN1C(=O)N[C@@H](CCCCN)C1=O)C(=O)O [Example 32] | 2710 nM | 6 µM | 2 µM

SMILES | IC50 [2, 3] | IC50 [2, 4] | Ki [1] | IC50 [2, 5] | IC50 [2, 6]
N=C(N)c1ccc(CC2NC(=O)N(CC(=O)NCCC(=O)O)C2=O)cc1 (racemic) [Example 6, [5-(S,R)-(4-Formamidino-benzyl) -2,4-dioxoimidazolidin-3-yl]-acetyl-β-alanine] | 5.5 µM | 3 µM | 1910 nM |  | 
N=C(N)c1ccc(CC2NC(=O)N(CC(=O)N[C@@H](CC(=O)O)C(=O)N[C@@H](Cc3ccccc3)C(=O)O)C2=O)cc1 (stereo partly drawn) [Example 14, (5-(R,S)-(4-Formamidinobenzyl)-2,4-dioxo-imidazolidin-3-yl)-acetyl-L-aspartyl-L-phenylalanine] | 0.55 µM | 0.3 µM | 270 nM |  | 
C[C@@H](O)[C@H](NC(=O)[C@H](CC(=O)O)NC(=O)CN1C(=O)NC(Cc2ccc(C(=N)N)cc2)C1=O)C(=O)O (stereo partly drawn) [Example 16, (5-(R,S)-(4-Formamidinobenzyl)-2,4-dioxo-imidazolidin-3-yl) -acetyl-L-aspartyl-L-threonine] | 0.7 µM | 0.2 µM | 120 nM |  | 
